Like-named read-outs stand apart in the source and are kept apart here.
How the values were obtained:
SARS-Cov-2 3CLpro = molecular target: T1, SARS-Cov-2 3CLpro (Severe acute respiratory syndrome coronavirus 2, UniProt P0DTD1); assay: biochemical
T1 construct: 3CLpro and HRV3C was added using a Multidrop Combi

HRV3C = molecular target: T2, HRV3C (Human rhinovirus 14, UniProt P03303); assay: biochemical; parameters: species or system HRV
T2 construct: 3CLpro and HRV3C was added using a Multidrop Combi

[1] = test system: B.1.1.7 lineage SARS-CoV-2; assay: microbe, parasite or virus in culture; format: cell-based
human cathepsin L = molecular target: T3, human cathepsin L (Homo sapiens, UniProt P07711); assay: Cathepsin L assay (Z-FR-AMC fluorescence); format: biochemical; settings: 10 pM human cathepsin L, 30 mins preincubation, Z-FR-AMC 2 μM
T3 construct: purchased R&D Systems
In short: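 IC50 values were taken from four-parameter fits of fluorescence read at 355/460 nm every 2 minutes for 30 minutes. The reaction started when 2 μM Z-FR-AMC was added. Before that, 10 pM human cathepsin L had been preincubated with inhibitor for 30 minutes.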

in vitro [2] = settings: human
[3] = test system: human beta-coronavirus OC43; assay: OC43 coronavirus antiviral assay in HeLa cells (cytopathic effect, cell-titer-glo); format: cell-based; settings: 6 days at 33° C., read-out: EC50 (class)
[4] = test system: SARS-CoV-2-GHB-03021/2020; format: cell-based; settings: read-out: VeroE6 + CP (EC50)
in vitro [5] = settings: human; remark: listed apart in the source
SARS-CoV-2 = settings: cited from earlier work
3CLpro = 3CLpro (Severe acute respiratory syndrome coronavirus 2, UniProt P0DTD1); settings: cited from earlier work
Vero E6-eGFP cells = settings: read-out: VeroE6 + CP (CC50), absence of virus, numeric values
[6] = test system: A549-dual_ACE2_TMPRSS2 cells; settings: read-out: A549-dual_ACE2_TMPRSS2 (CC50); assay medium without virus, MTS, numeric values
[7] = Cytotoxicity in HeLa cells without OC43 virus (cell-titer-glo); settings: human
[8] = 3CLpro, 30 mins preincubation, SAMDI-MS, read-out: SARS-Cov-2 IC50 (class)
[9] = HRV3C, 30 mins preincubation, SAMDI-MS, read-out: HRV IC50 (bound)
[10] = Severe acute respiratory syndrome coronavirus 2, 96 h; read-out: A549-dual_ACE2_TMPRSS2 (EC50)
[11] = Betacoronavirus 1, OC43, HeLa, 144 h
[12] = read-out: A549-dual_ACE2_TMPRSS2 (EC50)

T2 sequence (P03303 1538-1719): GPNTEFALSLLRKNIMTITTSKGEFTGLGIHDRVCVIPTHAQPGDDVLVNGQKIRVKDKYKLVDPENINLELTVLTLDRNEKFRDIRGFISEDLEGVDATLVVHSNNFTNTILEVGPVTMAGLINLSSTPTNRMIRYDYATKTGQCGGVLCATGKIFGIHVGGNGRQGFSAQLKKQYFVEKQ
T3 sequence (P07711 114-333): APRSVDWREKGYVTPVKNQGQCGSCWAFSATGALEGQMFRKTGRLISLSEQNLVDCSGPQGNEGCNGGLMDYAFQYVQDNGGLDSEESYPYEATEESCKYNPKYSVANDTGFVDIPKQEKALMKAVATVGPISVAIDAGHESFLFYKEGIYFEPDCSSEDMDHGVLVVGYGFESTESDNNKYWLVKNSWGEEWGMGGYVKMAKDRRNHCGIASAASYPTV

Structure (SMILES)	IC50 (SARS-Cov-2 3CLpro; [8])	IC50 (HRV3C; [9])	EC50 [1, 10]	IC50 (human cathepsin L)	CC50 (in vitro [2])	EC50 [3, 11]	EC50 [4]	CC50 (in vitro [5])	other results
CO[C@H](C(C)C)[C@H](NC(=O)C(F)(F)C(F)(F)F)C(=O)N1C[C@H]2[C@@H]([C@H]1C(=O)N[C@H](C#N)C[C@@H]1CCNC1=O)[C@H]1C=C[C@@H]2C1 [Compound 135]	< 20 nM	> 500 nM	< 100 nM	≥ 10000 nM	> 1000 nM				
CC(C)(C)[C@H](NC(=O)C(F)(F)F)C(=O)N1C[C@@H]2[C@@H]3CC[C@@H](C3)[C@@H]2[C@H]1C(=O)N[C@H](C#N)CC1Cc2ccccc2NC1=O (stereo partly drawn) [Example 31, (1S,3aR,4R,7S,7aS)—N-((1S)-1-cyano-2-(2-oxo-1,2,3,4-tetrahydroquinolin-3-yl)ethyl)-2-((S)-3,3-dimethyl-2-(2,2,2-trifluoroacetamido)butanoyl)octahydro-1H-4,7-methanoisoindole-1-carboxamide]	< 20 nM	> 10000 nM	< 100 nM	≥ 10000 nM	> 10000 nM	100 to 1000 nM	100 to 1000 nM	> 10000 nM	
CC(C)(C)[C@H](NC(=O)C(F)(F)F)C(=O)N1C[C@H]2[C@@H]([C@H]1C(=O)N[C@H](C#N)CC1Cc3ccccc3NC1=O)[C@H]1C=C[C@@H]2C1 (stereo partly drawn) [Example 29, (1S,3aR,4S,7R,7aS)—N-((1S)-1-cyano-2-(2-oxo-1,2,3,4-tetrahydroquinolin-3-yl)ethyl)-2-((S)-3,3-dimethyl-2-(2,2,2-trifluoroacetamido)butanoyl)-2,3,3a,4,7,7a-hexahydro-1H-4,7-methanoisoindole-1-carboxamide]	< 20 nM	> 10000 nM	< 100 nM	≥ 10000 nM	> 10000 nM	< 100 nM	< 100 nM	> 10000 nM	
CN1CCN(C(=O)N[C@@H](Cc2ccccc2)C(=O)N[C@H](/C=C/S(=O)(=O)c2ccccc2)CCc2ccccc2)CC1 [Example K117777]									antiviral effect (SARS-CoV-2; A549-ACE2 when TMPRSS2 was expressed (Steuten et al.)): abolished; inhibition of SARS-CoV-2 (SARS-CoV-2; VeroE6, A549-ACE2 and/or HeLa-ACE2 (Mellott et al.)): potent inhibition; inhibitory effect on the 3CLpro (3CLpro): lacks an inhibitory effect
CC(C)(C)[C@H](NC(=O)C(F)(F)F)C(=O)N1C[C@@H]2[C@@H]3CC[C@@H](C3)[C@@H]2[C@H]1C(=O)N[C@H](C#N)C[C@@H]1CC2(CC2)NC1=O [Example 15, (1S,3aR,4R,7S,7aS)-N-((S)-1-cyano-2-((R)-5-oxo-4-azaspiro[2.4]heptan-6-yl)ethyl)-2-((S)-3,3-dimethyl-2-(2,2,2-trifluoroacetamido)butanoyl)octahydro-1H-4,7-methanoisoindole-1-carboxamide]	< 20 nM	> 10000 nM	< 100 nM	≥ 10000 nM	> 10000 nM		< 100 nM		
[2H]C1=C[C@@H]2C[C@H]1[C@H]1[C@@H]2CN(C(=O)[C@@H](NC(=O)C(F)(F)C(F)(F)F)C(C)(C)C)[C@@H]1C(=O)N[C@H](C#N)C[C@@H]1CCNC1=O [Compound 125]	< 20 nM	> 500 nM				< 100 nM		> 100000 nM	
Cc1cc(C(=O)N[C@H](C(=O)N2C[C@H]3[C@@H]([C@H]2C(=O)N[C@H](C#N)C[C@@H]2CCNC2=O)[C@H]2C=C[C@@H]3C2)C(C)(C)C)no1 [Example 4, (1R,2S,3S,6R,7S)—N-[(1S)-1-cyano-2-[(3S)-2-oxopyrrolidin-3-yl]ethyl]-4-[(2S)-3,3-dimethyl-2-[(5-methyl-1,2-oxazol-3-yl)formamido]butanoyl]-4-azatricyclo[5.2.1.0^{2,6}]dec-8-ene-3-carboxamide]	20 to 200 nM	> 10000 nM		≥ 10000 nM			100 to 1000 nM		EC50 [3]: < 100 nM; EC50 [1, 12]: 100 to 1000 nM; CC50 (HeLa cells): > 100000 nM; CC50 (Vero E6-eGFP cells): > 50000 nM; CC50 [6]: > 10000 nM
Cc1cn(C(C(=O)N2C[C@H]3[C@@H]([C@H]2C(=O)N[C@H](C#N)C[C@@H]2CCNC2=O)[C@H]2C=C[C@@H]3C2)C(C)(C)C)nn1 (stereo partly shown) [Compound 53]	20 to 200 nM	> 10000 nM	1000 to 10000 nM	≥ 10000 nM	> 10000 nM	1000 to 10000 nM	100 to 1000 nM	> 10000 nM	
CC(C)(C)[C@H](NC(=O)C(F)(F)F)C(=O)N1C[C@H]2[C@@H]([C@H]1C(=O)N[C@H](C#N)C[C@@H]1CCNC1=O)[C@H]1C=C[C@@H]2C12CC2 [Example 25, (1′R,2′S,3′S,6′R,7′S)—N-[(1S)-1-cyano-2-[(3S)-2-oxopyrrolidin-3-yl]ethyl]-4′-[(2S)-3,3-dimethyl-2-(2,2,2-trifluoroacetamido)butanoyl]-4′-azaspiro[cyclopropane-1,10′-tricyclo[5.2.1.0^{2,6}]decan]-8′-ene-3′-carboxamide]				≥ 10000 nM	> 10000 nM	< 100 nM	100 to 1000 nM		IC50 (SARS-Cov-2 3CLpro): < 20 nM; IC50 (HRV3C): > 10000 nM; EC50 ([1]; Severe acute respiratory syndrome coronavirus 2, 96 h, read-out: A549-dual_ACE2_TMPRSS2 (EC50)): 100 to 1000 nM; CC50 at 6 days [7]: > 100000 nM
CC(C)(C)[C@H](NC(=O)C(F)(F)Cl)C(=O)N1C[C@@H]2[C@H]3C[C@@H]([C@@H]2[C@H]1C(=O)N[C@H](C#N)C[C@@H]1CCNC1=O)[C@H](F)C3 [Compound 134, (1S,3aR,4S,6R,7S,7aR)-2-((S)-2-(2-chloro-2,2-difluoroacetamido)-3,3-dimethylbutanoyl)-N-((S)-1-cyano-2-((S)-2-oxopyrrolidin-3-yl)ethyl)-6-fluorooctahydro-1H-4,7-methanoisoindole-1-carboxamide]	< 20 nM	> 500 nM		≥ 10000 nM		< 100 nM		> 100000 nM	
CC(C)(C)[C@H](NC(=O)c1ccccn1)C(=O)N1C[C@H]2[C@@H]([C@H]1C(=O)N[C@H](C#N)C[C@@H]1CCNC1=O)[C@H]1C=C[C@@H]2C1 [Example 5, (1R,2S,3S,6R,7S)—N-[(1S)-1-cyano-2-[(3S)-2-oxopyrrolidin-3-yl]ethyl]-4-[(2S)-3,3-dimethyl-2-(pyridin-2-ylformamido)butanoyl]-4-azatricyclo[5.2.1.0^{2,6}]dec-8-ene-3-carboxamide]	200 to 2000 nM	> 10000 nM		≥ 10000 nM			1000 to 10000 nM		EC50 [3]: 100 to 1000 nM; EC50 [1, 12]: 1000 to 10000 nM; CC50 (HeLa cells): > 100000 nM; CC50 (Vero E6-eGFP cells): > 50000 nM; CC50 [6]: > 10000 nM

Source: patent US12252481B2, “Anti-viral compounds” (Aligos Therapeutics, Inc., priority 2021, dated 2025)
